Assay results reported in patent US8729227B2, “Compounds for control of appetite” (University of Cincinnati, priority 2006, dated 2014).

Columns and labels:
[1] = native PP; cited from earlier work
[2] = test system: C57BL/6 male mice; experiment: Feeding pattern of fasted mice after ip injection of hPP or B-74 (Example II, FIG. 1); type: in vivo; settings: 18 h fasted mice, B-74 100 nmol/mice, versus saline control
Experimental: To study the feeding patterns of animals treated with B-74, seven to eight week old C57BL/6 male mice (Harlan Laboratories, Indianapolis, Ind.) were individually housed in cages in a temperature controlled room (25° C.) under 12-hour light/dark cycles. Mice had free access to water and standard chow and were acclimatized to daily ip saline injections. […] Food was provided ten (10) minutes later, and the 2 and 4 hour food intake was monitored. Statistical significance was determined by ANOVA, with individual means being compared post-hoc by Tukey's corrected t-test.

[3] = test system: C57BL/6 male mice; experiment: Food intake of fasted mice after ip B-48 or B-74 alone or together (Example IV, FIGS. 2 and 3); type: in vivo; settings: for Percentage of Inhibition of Food Intake Compared to Saline: B-48 vs. (B-48 + B-74), fasted mice, 0.050 μmol each compound
Experimental: To further compare the inhibitory effects of injecting (ip) 0.050 μmol of B-48 or B-74 alone or together (B-48+B-74) on the food intake by fasted mice, additional experiments were conducted.
Accordingly, to study the feeding patterns of animals treated with B-48 or B-74 alone or together (B-48+B-74), seven to eight week old C57BL/6 male mice (Harlan Laboratories, Indianapolis, Ind.) were individually housed in cages in a temperature controlled room (25° C.) under 12-hour light/dark cycles. The mice had free access to water and standard chow. After acclimatizing for one week, mice were fasted 18 hours before the experiment. The fasted animals were injected (ip) with 0.1 ml of saline or saline (0.1 ml) containing B-48 (0.050 μmol/mice) or B-74 (0.050 μmol/mice) alone or together, B-48+B-74 (0.100 μmol/mice, i.e. 0.050 μmol/mice per each compound), (n=8-10 per group). The mice were provided with a blown quantity of chow 10 minutes later. The food intake was monitored over 1-24 h. Statistical significance was determined by AN OVA, with individual means being compared post-hoc by Tukey's corrected t-test.

[4] = test system: C57BL/6 male mice; experiment: Preliminary dose study of B-48 on food intake of fasted mice (Example III); type: in vivo; settings: ip, overnight (18 h) fasted mice, food intake monitored over 1-24 h; preliminary studies, results not shown
Experimental: To further study the feeding patterns of animals treated with B-48, experiments were performed in seven to eight week old C57BL/6 male mice (Harlan Laboratories, Indianapolis, Ind.) after acclimatization of mice for one week. More specifically, in preliminary studies, overnight (18 h) fasted animals were injected (ip) with 0.1 ml of saline or saline (0.1 ml) containing various concentrations of B-48 (0.025, 0.050, 0.100 or 0.150 μmol/mice) (n=8-10 per group). The mice were provided with a known quantity of chow 10 min later. The food intake was monitored over 1-24 h.

| Substance | half-life [1] | 2 h food intake ([2]; 2 h) | 4 h food intake ([2]; 4 h) | Percentage of Inhibition of Food Intake Compared to Saline ([3]; 2 hours after injection) [%] | Percentage of Inhibition of Food Intake Compared to Saline ([3]; 4 hours after injection) [%] | Percentage of Inhibition of Food Intake Compared to Saline ([3]; 8 hours after injection) [%] | inhibition of food intake over the 24 h time period ([3]; 18 h fasted mice, 0.050 μmol/mice per each compound, alone or together) | Percentage of Inhibition of Food Intake Compared to Saline ([3]; 24 hours after injection) [%] | minimum dose required to exhibit significant inhibitory effects on food intake [4] [μmol/mice] |
| --- | --- | --- | --- | --- | --- | --- | --- | --- | --- |
| APLEPVYPGDNATPEQMAQYAADLRRYINMLTRPRY [PP] | about six | inhibited | inhibited | – | – | – | – | – | – |
| N-α-Ac[Nle^24,28,Trp^30,Nva^31,ψ^35/36]PYY(22-36)-NH2 (ASXRHYXNWXTRQRY; N-acetyl, C-amide, Nle, Nva, reduced CH2-NH bond; synthesized by man) [B-48, PYY(22-36) analog, Y2 receptor agonist; ψ is —CH2-NH—] | – | – | – | 39 | 30 | 16 | inhibited food intake to a greater extent than the control | 7 | 0.050 |
